These results are taken from patent US20130029970A1 (priority 2009, published 2013).

The target in test [1] is T1, recombinant human cannabinoid receptor CB1 (Homo sapiens, UniProt P21554).
T1 construct: (cDNA clone) CNR01L000
Briefly: Cannabinoid receptor radioligand binding assay, [3H]-CP 55,940 displacement, hCB1. From the text: (§1) Stable, HEK-293-derived cell lines that recombinantly express hCBI or hCB2 were established. In brief, the clone hCB1 (CNR IL) or hCB2 (CNR2) was transfected into human embryonic kidney cells (HEK-293) using Lipofectamine 2000 (Gibco, Cat#11668-019) according to the manufacturer's protocol. Transfected clones were isolated by single colony purification and clones were screened for receptor expression using a whole cell, ^3H—CP 55,940 radioligand binding assay. HEK-293 stable cells were maintained in Dulbecco's modified Eagles medium (DMEM) containing 10% fetal bovine serum, 2 mM L-glutamine and 0.5 mg/mL G-418.
(§2) Membranes were isolated from transfected cells as follows. Monolayers of cultured cells were washed twice with phosphate-buffered saline (PBS). Cells were scraped into 20 mM HEPES, pH 7.4, 10 mM EDTA containing complete cocktail protease inhibitors (Roche, Catalog #11 697 498 001) and were homogenized by an electric-powered mechanical probe homogenizer (Omni GLH; probe G7-195S) for 40 seconds at 7000 rpm. Homogenates were centrifuged 10 minutes at 1000×g at 4° C. The supernatant was collected and was centrifuged for 1 hour at 40,000×g. The supernatant was then decanted and the resulting pellet was re-suspended in 20 mM HEPES, pH 7.4, 5 mM MgCl2, 1 mM EDTA, 10% sucrose with complete cocktail protease inhibitors. Protein concentration of membrane suspensions were measured by Bradford Protein Assay using bovine serum albumin as the standard (BioRad catalog #500-0006). Protein concentrations of membrane suspensions were adjusted with the final buffer in the range of 5 to 10 mg/mL and were stored at −80° C. until further use.
Radioligand binding assays were performed by incubating membranes (2-10 μg protein) prepared from HEK-293 cells expressing recombinant human cannabinoid receptors, CB1 or CB2, at room temperature with 0.5 nM cannabinoid receptor agonist, [^3H]-CP 55,940 (Perkin Elmer, catalog #NET1051) in 0.2 mL of binding buffer (50 mM Tris-HCl, pH 7.5, 5 mM MgCl2, 2.5 mM EDTA) and 0.1% fatty acid free bovine serum albumin (Sigma Cat. #A0821) for 90 minutes. A rapid filtration technique using Millipore FB filter plates (Catalog #MADVNOB) and filtration apparatus (Millipore system Catalog MAVM0960R) with vacuum aspiration was used to harvest and rinse labeled membranes (8 times with 0.2 mL of chilled binding buffer). The radioactivity bound to the filters was counted with 0.05 mL of liquid scintillant (UltraGold MV, PerkinElmer catalog #6013159) in a scintillation counter (Perkin Elmer Microbeta instrument). Nonspecific binding was determined in the presence of unlabeled 1 μM CP 55,940 (Sigma Aldrich, catalog #C1112). Binding data were analyzed using GraphPad Prism (GraphPad Software, Inc. San Diego, Calif.).

Another test concerns the target T2, human CB2 (hCB2) (Homo sapiens, UniProt P34972).
T2 construct: (cDNA clone) CNR0200000
The experiment in a line: 35S GTPγS binding assay, hCB2 agonist. Type of test: biochemical. The protocol: (§3) cDNA expression clones for human CB1 (hCB1, Genbank Accession No. AY225225) and human CB2 (hCB2, Genbank Accession No. AY242132) expressed in vector pcDNA3.1+ were purchased from UMR cDNA Resource Center, Rolla, Mo. (Clone ID CNR01L000 for hCB1; CNR0200000 for hCB2).
as §2, with “Cells were scraped into 20 mM HEPES, pH 7.4, 10 mM EDTA containing complete cocktail protease inhibitors (Roche, Catalog #11 697 498 001) and were homogenized by an electric-powered mechanical probe homogenizer (Omni GLH; probe G7-195S) for 40 seconds at 7000 rpm.” left out
(§4) Functional assays which monitor G-protein coupled receptor or downstream cellular responses can be used to characterize potential CB1 receptor and/or CB2 receptor agonist or antagonist activities. Direct activation (or inhibition of activation) can be monitored using a GTPγS assay (membrane-based assay) or cAMP assay (whole cell-based assay).
(§5) ^35S GTPγS binding assays were performed by incubating recombinant cell membranes prepared above (5 μg) in the presence of scintillation proximity assay beads (SPA beads, Catalog #RPNQ0252 GE Healthcare, Buckinghamshire, England) in GTPγS binding buffer [50 mM HEPES (pH 7.4), 100 mM NaCl, 5 mM MgCl2, 0.001% saponin (Sigma catalog #S4521)] supplemented with 20 uM GDP (Sigma catalog #G7127) in the presence or absence of test compound. The reaction was carried out in 96-well microplates with 0.1 nM [^35S]GTPγS (specific activity=1250 Ci/mmol; Perkin Elmer catalog #NEG030X250UC) in a final volume of 100 uL. After a 90 min room temperature incubation, the reaction was analyzed using a scintillation counter (Perkin Elmer Microbeta instrument). Binding data were analyzed using GraphPad Prism.

Test [2] addresses T3, recombinant human cannabinoid receptor CB2 (Homo sapiens, UniProt P34972).
T3 construct: (cDNA clone) CNR0200000
Briefly: Cannabinoid receptor radioligand binding assay, [3H]-CP 55,940 displacement, hCB2. The procedure, abridged:
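Receptor source: membrane pellet (40,000×g) from transfected cells, stored in HEPES pH 7.4/MgCl2/EDTA/sucrose buffer.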

For a further test, the target named is T4, human CB1 receptors (Homo sapiens, UniProt P21554).
T4 construct: (cDNA clone) CNR01L000
Briefly: cAMP assay in HEK-293 cells, hCB1 agonist. The note with it: inhibition of forskolin-stimulated cAMP, HEK-293 cells. The class given is cell-based. The procedure, abridged: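 Agonist EC50 taken as concentration giving half inhibition of forskolin-driven cAMP, normalized to forskolin maximum, from sigmoidal curves. Whole HEK-293 cells stably expressing hCB1, in HEPES/BSA-containing HBSS, exposed 30 min at 37° C. to compound with forskolin (90 uM in 3× dilution); cAMP read after lysis.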
Background: Cyclic AMP is a second messenger, typically raised through Gs and lowered through Gi signalling.

For another test, the target named is T5, human CB1 (hCB1) (Homo sapiens, UniProt P21554).
T5 construct: (cDNA clone) CNR01L000
Briefly: 35S GTPγS binding assay, hCB1 agonist. The class given is biochemical. The note with it: GTPγS agonist, HEK-293 membranes; read-out: hCB1 EC50 (GTPyS ag).
Excerpt: as §3, §1, §2, §4, §5
In general terms: GTPγS is a poorly hydrolysed GTP analogue; its binding reports G protein activation.

Another test has as its target T6, human CB2 receptors (Homo sapiens, UniProt P34972).
T6 construct: (cDNA clone) CNR0200000
Briefly: cAMP assay in HEK-293 cells, hCB2 agonist. Type of test: cell-based. The essentials:
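Stable hCB2 HEK-293 cells in HBSS/10 mM HEPES/0.1% fatty-acid-free BSA incubated 30 min at 37° C with compound; forskolin 90 uM in 3× compound mix.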

Setting [3] is: GTPγS agonist, HEK-293 membranes, read-out: hCB2 EC50 (GTPyS ag).

Like-named read-outs stand apart in the source and are kept apart here.

T5 sequence (P21554 whole entry): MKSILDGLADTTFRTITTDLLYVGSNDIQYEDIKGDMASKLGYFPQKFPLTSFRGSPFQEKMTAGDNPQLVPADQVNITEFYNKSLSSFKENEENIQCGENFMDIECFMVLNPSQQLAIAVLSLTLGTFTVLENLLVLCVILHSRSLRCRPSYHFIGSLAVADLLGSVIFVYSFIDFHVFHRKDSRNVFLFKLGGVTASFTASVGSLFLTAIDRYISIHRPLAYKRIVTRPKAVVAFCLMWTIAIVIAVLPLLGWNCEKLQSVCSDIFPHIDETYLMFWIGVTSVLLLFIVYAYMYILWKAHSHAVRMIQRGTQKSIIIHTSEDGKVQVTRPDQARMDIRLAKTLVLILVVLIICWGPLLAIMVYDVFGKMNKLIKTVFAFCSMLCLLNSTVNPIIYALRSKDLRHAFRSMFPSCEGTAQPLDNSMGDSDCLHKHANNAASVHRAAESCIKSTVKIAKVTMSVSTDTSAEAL
T4 sequence (P21554 whole entry): as above
T6 sequence (P34972 whole entry): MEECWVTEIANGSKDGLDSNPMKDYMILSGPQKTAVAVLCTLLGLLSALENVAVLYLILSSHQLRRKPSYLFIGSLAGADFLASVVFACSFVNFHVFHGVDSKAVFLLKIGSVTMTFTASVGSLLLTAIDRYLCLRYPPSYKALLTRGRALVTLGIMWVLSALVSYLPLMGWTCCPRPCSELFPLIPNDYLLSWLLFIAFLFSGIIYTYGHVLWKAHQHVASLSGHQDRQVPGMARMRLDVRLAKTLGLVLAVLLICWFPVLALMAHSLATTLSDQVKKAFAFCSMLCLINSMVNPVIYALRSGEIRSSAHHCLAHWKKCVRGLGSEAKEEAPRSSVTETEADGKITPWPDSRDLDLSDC
T2 sequence (P34972 whole entry): as above
T1 sequence (P21554 whole entry): as the sequence (P21554 whole entry) above
T3 sequence (P34972 whole entry): as the sequence (P34972 whole entry) above

As usually defined, the IC50 is the concentration that gives 50% inhibition. A word on the EC50: it is the concentration giving half of the maximal effect. For the compound `COc1ccc(C(=O)c2cc3cc(C)n(CCCN(C)S(C)(=O)=O)c3s2)cc1` [Compound 69, N-(3-(2-(4-Methoxybenzoyl)-5-methyl-6H-thieno[2,3-b]pyrrol-6-yl)propyl)-N-methylmethanesulfonamide], the IC50 is > 10 µM in test [1] and 1 to 10 µM in test [2]. The compound also yielded an EC50 at human CB2 (hCB2) of 0.1 to 1 µM. In addition, at human CB1 receptors, the “hCB1 EC50 (cAMP ag, nM)” value is recorded as “NS (NS means “Not Significant,” which means less than 30% agonist activity when compared to the positive control.)”.

On to `COc1ccc(C(=O)c2cc3cc(C)n(C(=S)SC)c3s2)cc1` [Compound 155, Methyl 2-(4-methoxybenzoyl)-5-methyl-6H-thieno[2,3-b]pyrrole-6-carbodithioate], for which the EC50 was 0.1 to 1 µM at human CB2 (hCB2) (setting [3]) and > 10 µM on human CB1 (hCB1). The “hCB1 EC50 (cAMP ag, nM)” value at human CB1 receptors is listed as “NS (NS means “Not Significant,” which means less than 30% agonist activity when compared to the positive control.)”.

With `COc1ccc(C(=O)c2cc3cc(C)n(CCN4CCC(OC)CC4)c3s2)cn1` [Compound 156, (6-(2-(4-methoxypiperidin-1-yl)ethyl)-5-methyl-6H-thieno[2,3-b]pyrrol-2-yl)(6-methoxypyridin-3-yl)methanone], the EC50 at human CB2 (hCB2) and at human CB1 (hCB1) was > 10 µM each time. Further, the “hCB1 EC50 (cAMP ag, nM)” value on human CB1 receptors was “NS (NS means “Not Significant,” which means less than 30% agonist activity when compared to the positive control.)”.

With `COc1ccc(C(=O)c2cc3cc(C)n(CC4CCOC4)c3s2)cn1` (stereo not shown) [Compound 159, (6-methoxypyridin-3-yl)(5-methyl-6-((tetrahydrofuran-3-yl)methyl)-6H-thieno[2,3-b]pyrrol-2-yl)methanone], the EC50 on human CB2 receptors was 1 to 10 µM; on human CB2 (hCB2), > 10 µM; at human CB1 (hCB1), > 10 µM. Further, the “hCB1 EC50 (cAMP ag, nM)” value at human CB1 receptors was “NS (NS means “Not Significant,” which means less than 30% agonist activity when compared to the positive control.)”.

For `COc1ccc(C(=O)c2cc3cc(C)n(CCN4CCOC(C)(C)C4)c3s2)cn1` [Compound 162, (6-(2-(2,2-dimethylmorpholino)ethyl)-5-methyl-6H-thieno[2,3-b]pyrrol-2-yl)(6-methoxypyridin-3-yl)methanone], the EC50 on human CB2 receptors (inhibition of forskolin-stimulated cAMP, HEK-293 cells, read-out: hCB2 EC50 (cAMP ag)) is 0.1 to 1 µM; on human CB2 (hCB2) (setting [3]) it was > 10 µM; on human CB1 (hCB1) it was > 10 µM. Besides, the “hCB1 EC50 (cAMP ag, nM)” value at human CB1 receptors was “NS (NS means “Not Significant,” which means less than 30% agonist activity when compared to the positive control.)”.

Consider `COc1ccc(C(=O)c2cc3cc(C)n(CCNC4CCOCC4)c3s2)cn1` [Compound 163, (6-methoxypyridin-3-yl)(5-methyl-6-(2-((tetrahydro-2H-pyran-4-yl)amino)ethyl)-6H-thieno[2,3-b]pyrrol-2-yl)methanone], for which the EC50 was 0.1 to 1 µM on human CB2 receptors, 1 to 10 µM at human CB2 (hCB2) and > 10 µM on human CB1 (hCB1). In addition, at human CB1 receptors, the “hCB1 EC50 (cAMP ag, nM)” value is reported as “NS (NS means “Not Significant,” which means less than 30% agonist activity when compared to the positive control.)”.

In the case of `COC(=O)Cn1c(C)cc2cc(C(=O)c3ccc(OC)nc3)sc21` [Compound 168, Methyl 2-(2-(6-methoxynicotinoyl)-5-methyl-6H-thieno[2,3-b]pyrrol-6-yl)acetate], the EC50 on human CB2 (hCB2) (setting [3]) and on human CB1 (hCB1) was > 10 µM in each case. Further, the “hCB1 EC50 (cAMP ag, nM)” value on human CB1 receptors is “NS (NS means “Not Significant,” which means less than 30% agonist activity when compared to the positive control.)”.

Turning to `COc1ccc(C(=O)c2cc3cc(C)n(C[C@@H]4COCCN4C)c3s2)cn1` [Compound 171, (R)-(6-methoxypyridin-3-yl)(5-methyl-6-((4-methylmorpholin-3-yl)methyl)-6H-thieno[2,3-b]pyrrol-2-yl)methanone], the EC50 at human CB2 (hCB2) and at human CB1 (hCB1) was > 10 µM in each case. For the same compound, on human CB1 receptors, the “hCB1 EC50 (cAMP ag, nM)” value is reported as “NS (NS means “Not Significant,” which means less than 30% agonist activity when compared to the positive control.)”.

Regarding `COc1ccc(C(=O)c2cc3cc(C)n(C)c3s2)cn1` [Compound 174, (5,6-dimethyl-6H-thieno[2,3-b]pyrrol-2-yl)(6-methoxypyridin-3-yl)methanone], the EC50 on human CB2 (hCB2) (setting [3]) and at human CB1 (hCB1) was > 10 µM throughout. The “hCB1 EC50 (cAMP ag, nM)” value at human CB1 receptors is given as “NS (NS means “Not Significant,” which means less than 30% agonist activity when compared to the positive control.)”.

With `COc1ccc(C(=O)c2cc3cc(C)n(CC4CCN(C(=O)OC(C)(C)C)CC4)c3s2)cn1` [Compound 179, tert-butyl 4((2-(6-methoxynicotinoyl)-5-methyl-6H-thieno[2,3-b]pyrrol-6-yl)methyl)piperidine-1-carboxylate], the EC50 on human CB2 (hCB2) (setting [3]) and at human CB1 (hCB1) was > 10 µM throughout. Further, the “hCB1 EC50 (cAMP ag, nM)” value at human CB1 receptors is reported as “NS (NS means “Not Significant,” which means less than 30% agonist activity when compared to the positive control.)”.

For `COc1ccc(C(=O)c2cc3cc(C)n(CCN4CCC(C(F)(F)F)CC4)c3s2)cn1` [Compound 181, (6-methoxypyridin-3-yl)(5-methyl-6-(2-(4-(trifluoromethyl)piperidin-1-yl)ethyl)-6H-thieno[2,3-b]pyrrol-2-yl)methanone], the “hCB2 EC50 (cAMP ag, nM)” value on human CB2 receptors (inhibition of forskolin-stimulated cAMP, HEK-293 cells) is on record as “NS (NS means “Not Significant,” which means less than 30% agonist activity when compared to the positive control.)”. For the same compound, the EC50 on human CB2 (hCB2) was in the range of 0.1 to 1 µM; at human CB1 (hCB1) it was 1 to 10 µM.
